Biological target: recombinant human HPK1 (Homo sapiens (Human), UniProt Q92918)
Assay: HPK1 kinase assay (ADP-Glo)
Format: biochemical
Conditions: 25 μM ATP, MBP substrate
Summary of the method: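 Activity was read as ADP formed, detected by ADP-Glo luminescence after the reaction of 5 ng recombinant human HPK1 with MBP and ATP (stocks 0.5 μg/μl and 25 μM) for 40 min at 30 °C. Buffer was Tris pH 7.5 with MgCl2, BSA and DTT, with compound in 0.5% DMSO. IC50 came from inhibition curves.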

Chain of recombinant human HPK1 (Q92918 whole entry): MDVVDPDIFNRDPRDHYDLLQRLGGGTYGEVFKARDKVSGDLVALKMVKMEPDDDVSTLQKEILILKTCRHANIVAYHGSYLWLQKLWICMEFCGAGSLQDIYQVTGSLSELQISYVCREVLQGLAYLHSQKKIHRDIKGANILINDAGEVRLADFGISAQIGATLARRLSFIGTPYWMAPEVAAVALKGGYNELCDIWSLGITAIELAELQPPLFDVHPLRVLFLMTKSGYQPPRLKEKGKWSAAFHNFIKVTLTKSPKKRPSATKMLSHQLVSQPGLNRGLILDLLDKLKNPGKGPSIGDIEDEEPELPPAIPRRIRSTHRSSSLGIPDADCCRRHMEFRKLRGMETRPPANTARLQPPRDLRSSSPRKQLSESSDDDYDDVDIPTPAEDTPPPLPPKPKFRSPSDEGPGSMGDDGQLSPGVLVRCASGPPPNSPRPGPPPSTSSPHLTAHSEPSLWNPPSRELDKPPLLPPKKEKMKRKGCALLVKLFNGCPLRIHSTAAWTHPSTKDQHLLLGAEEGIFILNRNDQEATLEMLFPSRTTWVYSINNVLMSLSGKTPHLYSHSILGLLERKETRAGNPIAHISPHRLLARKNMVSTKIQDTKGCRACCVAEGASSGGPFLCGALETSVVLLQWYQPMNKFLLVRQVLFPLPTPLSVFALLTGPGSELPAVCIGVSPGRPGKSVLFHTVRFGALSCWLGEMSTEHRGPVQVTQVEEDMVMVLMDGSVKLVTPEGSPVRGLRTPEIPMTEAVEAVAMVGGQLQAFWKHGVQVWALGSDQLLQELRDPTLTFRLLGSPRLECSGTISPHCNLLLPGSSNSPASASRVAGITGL

IC50 | SMILES
0.101 to 0.5 µM | Cc1c(F)c([S+](C)[O-])c2[nH]ncc2c1-c1ccc2nc(NC(=O)[C@@H]3C[C@@H]3F)cn2c1 (stereo partly drawn) [Example 299, (1S,2S)-2-fluoro-N-(6-(6-fluoro-5-methyl-7-(methylsulfinyl)-1H-indazol-4-yl)imidazo[1,2-a]pyridin-2-yl)cyclopropane-1-carboxamide]
< 0.1 µM | COC(=O)c1c(F)c(Cl)c(-c2ccc3nc(NC(=O)[C@@H]4C[C@@H]4F)sc3c2)c2cn[nH]c12 [Example 122, methyl 5-chloro-6-fluoro-4-(2-((1S,2S)-2-fluorocyclopropane-1-carboxamido)benzo[d]thiazol-6-yl)-1H-indazole-7-carboxylate]
< 0.1 µM | CCN(C)c1c(F)c(SC)c(-c2ccc3nc(NC(=O)[C@@H]4C[C@@H]4F)sc3c2)c2cn[nH]c12 [Example 138, (1S,2S)-N-(6-(7-(ethyl(methyl)amino)-6-fluoro-5-(methylthio)-1H-indazol-4-yl)benzo[d]thiazol-2-yl)-2-fluorocyclopropane-1-carboxamide]
< 0.1 µM | Cc1c(F)c(F)c2[nH]ncc2c1-c1ccc2nc(NC(=O)[C@@H]3C[C@@H]3F)sc2n1 [Example 186, (1S,2S)-N-(5-(6,7-difluoro-5-methyl-1H-indazol-4-yl)thiazolo[5,4-b]pyridin-2-yl)-2-fluorocyclopropane-1-carboxamide]
> 1 µM | Cc1c(F)c(OC(F)(F)F)c2[nH]ncc2c1-c1ccc2nc(NC(=O)[C@@H]3C[C@@H]3F)sc2n1 [Example 213, (1S,2S)-2-fluoro-N-(5-(6-fluoro-5-methyl-7-(trifluoromethoxy)-1H-indazol-4-yl)thiazolo[5,4-b]pyridin-2-yl)cyclopropane-1-carboxamide]
< 0.1 µM | Cc1c(F)c(C(F)(F)F)c2[nH]ncc2c1-c1ccn2nc(NC(=O)[C@@H]3C[C@@H]3F)cc2c1 [Example 482, (1S,2S)-2-fluoro-N-(5-(6-fluoro-5-methyl-7-(trifluoromethyl)-1H-indazol-4-yl)pyrazolo[1,5-a]pyridin-2-yl)cyclopropane-1-carboxamide]
0.501 to 1 µM | Cc1c(F)cc2[nH]nc(Br)c2c1-c1ccc2nc(NC(=O)[C@@H]3C[C@@H]3F)sc2c1 [Example 49, (1S,2S)-N-(6-(3-bromo-6-fluoro-5-methyl-1H-indazol-4-yl)benzo[d]thiazol-2-yl)-2-fluorocyclopropane-1-carboxamide]
< 0.1 µM | CCNc1c(F)c(Cl)c(-c2ccc3nc(NC(=O)[C@@H]4C[C@@H]4F)sc3n2)c2cn[nH]c12 [Example 159, (1S,2S)-N-(5-(5-chloro-7-(ethylamino)-6-fluoro-1H-indazol-4-yl)thiazolo[5,4-b]pyridin-2-yl)-2-fluorocyclopropane-1-carboxamide]
< 0.1 µM | CC(C)N(C)c1c(F)c(Cl)c(-c2ccc3nc(NC(=O)[C@@H]4C[C@@H]4F)cn3c2)c2cn[nH]c12 [Example 360, (1S,2S)-N-(6-(5-chloro-6-fluoro-7-(isopropyl(methyl)amino)-1H-indazol-4-yl)imidazo[1,2-a]pyridin-2-yl)-2-fluorocyclopropane-1-carboxamide]
0.101 to 0.5 µM | Cc1c(F)c(S(C)(=O)=O)c2[nH]ncc2c1-c1ccc2nc(NC(=O)[C@@H]3C[C@@H]3F)cn2c1 [Example 302, (1S,2S)-2-fluoro-N-(6-(6-fluoro-5-methyl-7-(methylsulfonyl)-1H-indazol-4-yl)imidazo[1,2-a]pyridin-2-yl)cyclopropane-1-carboxamide]
0.101 to 0.5 µM | O=C(Nc1nc2ccc(-c3c(Cl)c(F)cc4[nH]ncc34)cc2s1)[C@@H]1C[C@@H]1F [Example 41, (1S,2S)-N-(6-(5-chloro-6-fluoro-1H-indazol-4-yl)benzo[d]thiazol-2-yl)-2-fluorocyclopropane-1-carboxamide]
< 0.1 µM | O=C(Nc1cc2cc(-c3c(Cl)ccc4[nH]ncc34)ccn2n1)[C@@H]1C[C@@H]1F [Example 448, (1S,2S)-N-(5-(5-chloro-1H-indazol-4-yl)pyrazolo[1,5-a]pyridin-2-yl)-2-fluorocyclopropane-1-carboxamide]
< 0.1 µM | COC(=O)c1c(F)c(Cl)c(-c2ccn3nc(NC(=O)[C@@H]4C[C@@H]4F)cc3c2)c2cn[nH]c12 [Example 554, methyl 5-chloro-6-fluoro-4-(2-((1S,2S)-2-fluorocyclopropane-1-carboxamido)pyrazolo[1,5-a]pyridin-5-yl)-1H-indazole-7-carboxylate]
< 0.1 µM | O=C(Nc1nc2ccc(-c3c(Cl)c(F)c(C(F)F)c4[nH]ncc34)nc2s1)[C@@H]1C[C@@H]1F [Example 209, (1S,2S)-N-(5-(5-chloro-7-(difluoromethyl)-6-fluoro-1H-indazol-4-yl)thiazolo[5,4-b]pyridin-2-yl)-2-fluorocyclopropane-1-carboxamide]
0.501 to 1 µM | CC(=O)c1ccc2[nH]ncc2c1-c1ccn2nc(NC(=O)[C@@H]3C[C@@H]3F)cc2c1 [Example 453, (1S,2S)-N-(5-(5-acetyl-1H-indazol-4-yl)pyrazolo[1,5-a]pyridin-2-yl)-2-fluorocyclopropane-1-carboxamide]
0.101 to 0.5 µM | CCc1c(F)c(SCC(=O)O)c2[nH]ncc2c1-c1ccc2nc(NC(=O)[C@@H]3C[C@@H]3F)sc2n1 [Example 168, 2-((5-ethyl-6-fluoro-4-(2-((1S,2S)-2-fluorocyclopropane-1-carboxamido)thiazolo[5,4-b]pyridin-5-yl)-1H-indazol-7-yl)thio)acetic acid]
< 0.1 µM | Cc1c(F)c(SCCO)c2[nH]ncc2c1-c1ccc2nc(NC(=O)[C@@H]3C[C@@H]3F)cn2c1 [Example 292, (1S,2S)-2-fluoro-N-(6-(6-fluoro-7-((2-hydroxyethyl)thio)-5-methyl-1H-indazol-4-yl)imidazo[1,2-a]pyridin-2-yl)cyclopropane-1-carboxamide]
< 0.1 µM | CN(C(=O)O)C1CN(c2c(F)c(Cl)c(-c3ccc4nc(NC(=O)[C@@H]5C[C@@H]5F)sc4c3)c3cn[nH]c23)C1 [Example 89, (1-(5-chloro-6-fluoro-4-(2-((1S,2S)-2-fluorocyclopropane-1-carboxamido)benzo[d]thiazol-6-yl)-1H-indazol-7-yl)azetidin-3-yl)(methyl)carbamic acid]
< 0.1 µM | Cc1c(F)cc2[nH]ncc2c1-c1ccc2nc(NC(=O)[C@@H]3C[C@@H]3F)sc2c1CCc1ccncc1 [Example 65, (1S,2S)-2-fluoro-N-(6-(6-fluoro-5-methyl-1H-indazol-4-yl)-7-(2-(pyridin-4-yl)ethyl)benzo[d]thiazol-2-yl)cyclopropane-1-carboxamide]
< 0.1 µM | CC1CN(c2c(F)c(Cl)c(-c3ccn4nc(NC(=O)[C@@H]5C[C@@H]5F)cc4c3)c3cn[nH]c23)C1 [Example 630, (1S,2S)-N-(5-(5-chloro-6-fluoro-7-(3-methylazetidin-1-yl)-1H-indazol-4-yl)pyrazolo[1,5-a]pyridin-2-yl)-2-fluorocyclopropane-1-carboxamide]
0.101 to 0.5 µM | Cc1c(F)c(S(C)(=O)=O)c2[nH]ncc2c1-c1ccc2nc(NC(=O)[C@@H]3C[C@@H]3F)sc2c1 [Example 112, (1S,2S)-2-fluoro-N-(6-(6-fluoro-5-methyl-7-(methylsulfonyl)-1H-indazol-4-yl)benzo[d]thiazol-2-yl)cyclopropane-1-carboxamide]
< 0.1 µM | CCc1c(F)c(N(C)C)c2[nH]ncc2c1-c1ccn2nc(NC(=O)[C@@H]3C[C@@H]3F)cc2c1 [Example 519, (1S,2S)-N-(5-(7-(dimethylamino)-5-ethyl-6-fluoro-1H-indazol-4-yl)pyrazolo[1,5-a]pyridin-2-yl)-2-fluorocyclopropane-1-carboxamide]
< 0.1 µM | Cc1c(F)c(I)c2[nH]ncc2c1-c1ccc2nc(NC(=O)[C@@H]3C[C@@H]3F)sc2c1 [Example 67, (1S,2S)-2-fluoro-N-(6-(6-fluoro-7-iodo-5-methyl-1H-indazol-4-yl)benzo[d]thiazol-2-yl)cyclopropane-1-carboxamide]
0.101 to 0.5 µM | O=C(Nc1nc2ccc(-c3c(C(F)F)ccc4[nH]ncc34)cc2s1)[C@@H]1C[C@@H]1F [Example 33, (1S,2S)-N-(6-(5-(difluoromethyl)-1H-indazol-4-yl)benzo[d]thiazol-2-yl)-2-fluorocyclopropane-1-carboxamide]
< 0.1 µM | O=C(Nc1nc2ccc(-c3c(Cl)c(F)c(SCCO)c4[nH]ncc34)cc2s1)[C@@H]1C[C@@H]1F [Example 79, (1S,2S)-N-(6-(5-chloro-6-fluoro-7-((2-hydroxyethyl)thio)-1H-indazol-4-yl)benzo[d]thiazol-2-yl)-2-fluorocyclopropane-1-carboxamide]
< 0.1 µM | CC(=O)Nc1c(F)c(Cl)c(-c2ccc3nc(NC(=O)[C@@H]4C[C@@H]4F)sc3n2)c2cn[nH]c12 [Example 179, (1S,2S)-N-(5-(7-acetamido-5-chloro-6-fluoro-1H-indazol-4-yl)thiazolo[5,4-b]pyridin-2-yl)-2-fluorocyclopropane-1-carboxamide]
< 0.1 µM | CN(C)CCN(C)c1c(F)c(Cl)c(-c2ccc3nc(NC(=O)[C@@H]4C[C@@H]4F)sc3c2)c2cn[nH]c12 [Example 85, (1S,2S)-N-(6-(5-chloro-7-((2-(dimethylamino)ethyl)(methyl)amino)-6-fluoro-1H-indazol-4-yl)benzo[d]thiazol-2-yl)-2-fluorocyclopropane-1-carboxamide]
< 0.1 µM | COC(=O)c1c(F)c(C)c(-c2ccc3nc(NC(=O)[C@@H]4C[C@@H]4F)sc3n2)c2cn[nH]c12 [Example 183, methyl 6-fluoro-4-(2-((1S,2S)-2-fluorocyclopropane-1-carboxamido)thiazolo[5,4-b]pyridin-5-yl)-5-methyl-1H-indazole-7-carboxylate]
0.101 to 0.5 µM | O=C(Nc1nc2ccc(-c3c(Cl)c(F)c(N4CCNCC4)c4[nH]ncc34)cc2s1)[C@@H]1C[C@@H]1F [Example 76, (1S,2S)-N-(6-(5-chloro-6-fluoro-7-(piperazin-1-yl)-1H-indazol-4-yl)benzo[d]thiazol-2-yl)-2-fluorocyclopropane-1-carboxamide]
